Source: the supplement of paper PMC8967900

Experiments:
Experiment in all cases: selective drug sensitivity score (sDSS, relative to normal bone marrow) (sDSS (score)); higher = more potent and effective on the cell line relative to normal bone marrow cells
Conditions in all cases: 72 h
KASUMI-9 = tested on: KASUMI-9
PEER = tested on: PEER
RPMI-8402 = tested on: RPMI-8402
CCRF-CEM = tested on: CCRF-CEM
RCH-ACV = tested on: RCH-ACV
COG-LL-332h = tested on: COG-LL-332h
MOLT-4 = tested on: MOLT-4
KASUMI-10 = tested on: KASUMI-10
MHH-CALL-4 = tested on: MHH-CALL-4
HAL-01 = tested on: HAL-01
KOPN-8 = tested on: KOPN-8
COG-LL-394h = tested on: COG-LL-394h
COG-LL-317 = tested on: COG-LL-317
P12-ICHIKAWA = tested on: P12-ICHIKAWA
ALL-PO = tested on: ALL-PO
MOLT-14 = tested on: MOLT-14
CCRF-HSB2 = tested on: CCRF-HSB2
COG-LL-402h = tested on: COG-LL-402h
NALM-6 = tested on: NALM-6
MN-60 = tested on: MN-60
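Note: ALL cell lines in 384-well plates, five doses spanning 10,000-fold, each plate scaled between vehicle and 100 µmol/L benzalkonium chloride controls, sDSS an adapted area-under-curve metric.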

| Structure (SMILES) | selective drug sensitivity score (KASUMI-9) | selective drug sensitivity score (PEER) | selective drug sensitivity score (RPMI-8402) | selective drug sensitivity score (CCRF-CEM) | selective drug sensitivity score (RCH-ACV) | selective drug sensitivity score (COG-LL-332h) | selective drug sensitivity score (MOLT-4) | selective drug sensitivity score (KASUMI-10) | selective drug sensitivity score (MHH-CALL-4) | selective drug sensitivity score (HAL-01) | selective drug sensitivity score (KOPN-8) | selective drug sensitivity score (COG-LL-394h) | selective drug sensitivity score (COG-LL-317) | selective drug sensitivity score (P12-ICHIKAWA) | selective drug sensitivity score (ALL-PO) | selective drug sensitivity score (MOLT-14) | selective drug sensitivity score (CCRF-HSB2) | selective drug sensitivity score (COG-LL-402h) | selective drug sensitivity score (NALM-6) | selective drug sensitivity score (MN-60) |
| --- | --- | --- | --- | --- | --- | --- | --- | --- | --- | --- | --- | --- | --- | --- | --- | --- | --- | --- | --- | --- |
| CC(=O)c1cc2c(o1)C(=O)c1ccccc1C2=O [Napabucasin] (top concentration 20000 nM) | -1.28 | 0.62 | -6.08 | -1.08 | -1.38 | 2.32 | -1.28 | 0.92 | 0.12 | -0.38 | 3.72 | -9.68 | -0.18 | -1.28 | 0.92 | -0.98 | 0.12 | -3.48 | -1.48 | -2.08 |
| CC1(C)CCC(c2ccc(Cl)cc2)=C(CN2CCN(c3ccc(C(=O)NS(=O)(=O)c4ccc(N[C@H](CCN5CCOCC5)CSc5ccccc5)c(S(=O)(=O)C(F)(F)F)c4)cc3)CC2)C1 [Navitoclax] (top concentration 10000 nM) | 19.8 | 12.2 | 7.42 | 17.4 | 3.32 | 8.42 | 15.6 | 26.4 | 18.4 | 14.8 | 23.2 | 19.2 | 20.5 | 17.6 | 23.6 | 12.7 | 8.92 | 23.4 | 11.7 | -8.58 |
| CC(=O)c1c(C)c2cnc(Nc3ccc(N4CCNCC4)cn3)nc2n(C2CCCC2)c1=O [Palbociclib] (top concentration 10000 nM) | 8.78 | 5.38 | 5.98 | 4.38 | 16.1 | 3.68 | 1.08 | 0.88 | -1.82 | 1.48 | 16.5 | -5.62 | 0.98 | 4.78 | 4.08 | 2.48 | 1.68 | 8.78 | 3.68 | -0.62 |
| COc1ccc(COc2cc3oc(=O)c4cc(C(C)O)ccc4c3cc2OC)cc1 (stereo not given) [Palomid-529] (top concentration 10000 nM) | 0.66 | 4.16 | 2.86 | 0.86 | -0.14 | 0.46 | 2.26 | -0.24 | -0.24 | -0.24 | 10.3 | -0.24 | 0.06 | -0.14 | 2.86 | 2.76 | 1.46 | 0.26 | -0.24 | -0.24 |
| FC(F)(F)c1ccc(CNc2ccc(Cc3c[nH]c4ncc(Cl)cc34)cn2)cn1 [Pexidartinib] (top concentration 10000 nM) | 1.18 | -0.32 | 0.58 | -0.72 | 1.58 | -2.22 | -1.92 | 8.78 | -2.22 | 2.08 | 0.68 | -1.32 | -0.52 | 0.18 | 6.68 | -2.02 | 1.38 | -2.22 | 0.18 | -1.52 |
| CO[C@H](C(=O)[C@@H](O)[C@@H](C)O)[C@@H]1Cc2cc3cc(O[C@H]4C[C@@H](O[C@H]5C[C@@H](O)[C@H](O)[C@@H](C)O5)[C@@H](O)[C@@H](C)O4)c(C)c(O)c3c(O)c2C(=O)[C@H]1O[C@H]1C[C@@H](O[C@H]2C[C@@H](O[C@H]3C[C@](C)(O)[C@H](O)[C@@H](C)O3)[C@H](O)[C@@H](C)O2)[C@H](O)[C@@H](C)O1 [Plicamycin] (top concentration 10000 nM) | -17.5 | -12.8 | -5.86 | -11.3 | -17.3 | -6.26 | -6.26 | -2.36 | -7.26 | -17.9 | -17.8 | 0.04 | -1.96 | -13.8 | -15.9 | -10.3 | -5.26 | 2.34 | 7.34 | 5.34 |
| Cn1cc(CNCC2CCN(c3ncc(C(=O)NO)cn3)CC2)c2ccccc21 [Quisinostat] (top concentration 1000 nM) | 9.78 | 2.88 | 5.58 | 3.98 | 14.2 | 1.48 | 2.98 | 7.38 | 5.98 | -5.02 | 10.5 | 6.78 | 7.18 | 3.78 | 5.98 | 6.98 | 1.28 | 17.6 | 1.78 | -2.02 |
| CC(C)(C)Cn1c(N)nc2ccc(-c3[nH]c(C(C)(C)C)nc3-c3ccc(F)cc3)nc21 [Ralimetinib] (top concentration 10000 nM) | 8.76 | 2.26 | 4.26 | 2.26 | 11.5 | 2.56 | 8.36 | 0.86 | -0.84 | -0.74 | 4.26 | 4.16 | 0.96 | 1.86 | 8.56 | 6.96 | 1.26 | 2.26 | -0.24 | -0.14 |
| O=C(CCCCCCNC(=O)c1cnc(N(c2ccccc2)c2ccccc2)nc1)NO [Rocilinostat] (top concentration 10000 nM) | 6.64 | 7.14 | 4.64 | 4.64 | 9.24 | 3.34 | 5.04 | 4.24 | 3.74 | -0.56 | 13.8 | 3.74 | 5.14 | 5.34 | 5.84 | 8.44 | 6.54 | 8.14 | 4.84 | 1.04 |
| CN1CCC(CNc2ccc3ncc(-c4cccc(OC(F)(F)F)c4)n3n2)CC1 [SGI-1776] (top concentration 10000 nM) | -1.68 | -0.58 | -2.68 | 0.52 | 0.62 | 0.22 | -2.88 | 4.82 | 0.32 | 1.92 | -0.78 | 0.82 | 0.02 | -2.98 | 7.02 | 0.32 | 3.12 | -2.48 | -3.08 | -3.78 |
| O=C(/C=C\n1cnc(-c2cc(C(F)(F)F)cc(C(F)(F)F)c2)n1)NNc1cnccn1 [Selinexor] (top concentration 10000 nM) | 7.98 | 10.2 | 12.3 | 9.38 | 13.7 | 9.68 | 13.2 | 3.78 | 5.18 | 9.08 | 17.1 | 5.78 | 17.4 | 10.1 | 13.5 | 16.7 | 14.8 | 11.7 | 13 | 3.58 |
| Cn1cnc2c(F)c(Nc3ccc(Br)cc3Cl)c(C(=O)NOCCO)cc21 [Selumetinib] (top concentration 10000 nM) | 2.2 | -1.6 | -4.1 | 2 | -3.7 | -2.3 | -3.7 | -3.5 | 4.2 | 11 | 7 | -3 | -3.5 | 0.3 | -2.8 | 7.2 | 0.8 | -2.3 | 5 | -4.1 |
| COCC[n+]1c2c(n(Cc3cnccn3)c1C)C(=O)c1ccccc1C2=O [Sepantronium_bromide] (top concentration 10000 nM) | 16.2 | 15.1 | 7.64 | 8.44 | 17.9 | 14.2 | 15.9 | 18.6 | 19.4 | -12.6 | 22.8 | -11.7 | 13.3 | 4.14 | 4.44 | 12.5 | 14.6 | 22.8 | 22.3 | 21.2 |
| O=C(O)c1ccc2c(c1)nc(Nc1cccc(Cl)c1)c1ccncc12 [Silmitasertib] (top concentration 10000 nM) | 3.3 | 3.6 | 3.3 | 4.1 | 0.8 | 4 | 0.6 | 3.8 | 2.2 | 3.8 | 11.4 | 2.3 | 4 | 0.6 | 1.9 | 4.1 | 4.4 | 0.2 | 4 | 3.7 |
| CO[C@H]1C[C@@H]2CC[C@@H](C)[C@@](O)(O2)C(=O)C(=O)N2CCCC[C@H]2C(=O)O[C@H]([C@H](C)C[C@@H]2CC[C@@H](O)[C@H](OC)C2)CC(=O)[C@H](C)/C=C(\C)[C@@H](O)[C@@H](OC)C(=O)[C@H](C)C[C@H](C)/C=C/C=C/C=C/1C [Sirolimus] (top concentration 100 nM) | 4.74 | 3.74 | -1.76 | 3.34 | 11.1 | 3.04 | -2.46 | -3.76 | -0.76 | 0.44 | 17.9 | -3.76 | 0.74 | -2.46 | 0.14 | -2.96 | 3.14 | 0.04 | -2.86 | 0.44 |
| COCCNCc1ccc(-c2cc3nccc(Oc4ccc(NC(=O)C5(C(=O)Nc6ccc(F)cc6)CC5)cc4F)c3s2)nc1 [Sitravatinib] (top concentration 2500 nM) | 3.58 | 7.38 | 2.38 | 0.18 | 7.38 | 5.98 | 0.78 | 20 | 5.48 | 5.28 | 8.08 | 3.08 | -0.42 | 0.08 | 14.8 | 1.08 | 9.28 | 1.78 | -0.12 | 0.78 |
| CCN(CC)CCNC(=O)c1c(C)[nH]c(/C=C2\C(=O)Nc3ccc(F)cc32)c1C [Sunitinib] (top concentration 1000 nM) | 0.66 | -0.24 | -1.24 | -1.44 | 1.46 | -1.44 | -0.94 | 10.4 | 2.06 | 3.36 | -1.44 | -0.34 | -1.44 | -1.34 | 14.2 | 0.76 | 1.36 | -1.44 | -1.44 | -1.44 |
